Like-named read-outs stand apart in the source and are kept apart here.

This passage reports IC50 results from patent US20180057465A1, “Inhibitors of Necroptosis” (Catalyst Therapeutics Pty Ltd, priority 2015, published 2018).

One assay deals with U937. As to the kind of experiment: Off-target effect (cell based assay), reported with assay 2. As to conditions: Homo sapiens. On the procedure:
(§1) Assay 2: Screening Compounds for Inhibition of TSQ Induced Necroptosis, 96 Well Plate Format.
(§2) Cell Line ID: U937 human histiocytic leukemia cell line.
(§3) Cell Concentration (cells/well): Final cell density is 5000 cells per well.
(§4) Cell growth medium: HT-RPMI+7.4% FBS. Cells are cultured in Corning 150 cm^2 tissue culture flasks with vented caps at 37° C./5% CO2.
(§5) Incubation time (hours): 48 hours following addition of compounds and death stimuli
(§6) Compound concentration: 100 nM
(§7) DMSO final concentration (% v/v): 0.3%.
(§8) Data is loaded into Abase and normalised. 10 points titration curve are fitted with the 4 parameter logistic nonlinear regression model and the IC50 reported reflects the inflection point of the curve for curve fitting.

Assay [1] concerns U937 human histiocytic leukemia cell line. As to the kind of experiment: Assay 2: inhibition of TSQ induced necroptosis, 96 well plate format. As to conditions: read-out: Inhibition of TSQ-induced necroptosis (cell based assay) IC50 (U937, TSQ nM). On the procedure: as §1, §2, §3, §4, §5, §6, §7
(§9) Compounds that are in the Death Stimulation Cocktail and Their Final Concentrations:
(§10) hTNF-Fc (100 ng/ml)—produced by standard procedures as shown in Bossen et al., J Biol Chem, 2006, 281(20), 13964-13971.
(§11) Compound A (500 nM)—Smac mimetic, Tetralogic
(§12) Q-VD-OPh (10 μM)—MP Biomedicals
as §8

The test system is the same in assay [2]. As to the kind of experiment: Off-target effect (cell based assay), reported with assay 1. On the procedure:
(§13) Assay 1: Screening Compounds for Inhibition of TSQ Induced Necroptosis, 96 Well Plate Format.
(§14) Cell Line ID: […] human histiocytic leukemia cell line.
(§15) Cell Concentration (cells/well): 35,000 per well in 120 μL of media, counted and plated immediately prior to addition of inhibitor and death stimuli. Final well volume of 150 μL after addition of compounds and death stimuli
(§16) Cell growth medium: HTRPMI (WEHI Media kitchen, contains L-Glutamine and penicillin, streptomycin)—supplemented with 7.4% v/v FCS (Gibco, Precision Plus. Lot #1221437)
as §5
(§17) Compound Concentrations—Log Titrations:
(§18) DMSO final concentration (% v/v): 1.2% in 10 μM well to 0.2% in the control well.
(§19) Cells treated with PI staining (1 μg/ml) and analysed by flow cytometry

Assay [3] shares this test system. The assay is described as follows: Assay 1: inhibition of TSQ induced necroptosis, 96 well plate format. The format is cell-based. On the procedure: For in vitro analysis, the necroptosis inhibition may be determined by assays used to measure TSQ-induced necroptosis, as described in the biological tests defined herein.
as §13, §14, §15, §16, §5, §17, §18, §9, §10, §11, §12, §19

Setting [4] is: U-937, Table 1, assay 1, read-out: Off-target effect (cell based assay) IC50.
The mark [5] stands for this setting: U-937, Table 1, assay 1, hTNF-Fc 100 ng/ml, Compound A 500 nM, Q-VD-OPh 10 μM, 48 hours, PI staining, flow cytometry, read-out: Inhibition of TSQ-induced necroptosis (cell based assay) IC50.
Setting [6] is: U-937, Table 2, assay 2, U937, read-out: Off-target effect (cell based assay) IC50 (U937).
[7] abbreviates: U-937, Table 2, assay 2, U937, 5000 cells per well, hTNF-Fc 100 ng/ml, Compound A 500 nM, Q-VD-OPh 10 μM, 48 hours.

Consider `CNC(=O)c1cc(Nc2ncc(C)c(N(C)c3ccc(NC(=O)Nc4ccc(OC(F)(F)F)cc4)cc3)n2)ccc1C` [Compound 6, N,2-dimethyl-5-((5-methyl-4-(methyl(4-(3-(4-(trifluoromethoxy)phenyl)ureido)phenyl)amino)pyrimidin-2-yl)amino)benzamide], for which the concentration for half-maximal inhibition (IC50) with U937 (U-937, read-out: Off-target effect (cell based assay) IC50 (U937, μM)) was > 1000 µM; in assay [1] (U-937, 48 h) it was 29 nM.
On to `CNC(=O)c1cc(Nc2nccc(N(C)c3ccc(NC(=O)Nc4ccc(OC(F)(F)F)cc4)cc3)n2)ccc1N1CCOCC1` [Compound 17, N-methyl-5-((4-(methyl(4-(3-(4-(trifluoromethoxy)phenyl)ureido)phenyl)amino)pyrimidin-2-yl)amino)-2-morpholinobenzamide], for which the concentration for half-maximal inhibition (IC50) in assay [2] (setting [4]) worked out at 5670 nM; in assay [3] (setting [5]), 38.3 nM.
Consider `Cc1ccc(Nc2nccc(N(C)c3ccc(NC(=O)Nc4ccc(OC(F)(F)F)cc4)cc3)n2)cc1CN1CCOCC1` [Compound 18, 1-(4-(methyl(2-((4-methyl-3-(morpholinomethyl)phenyl)amino)pyrimidin-4-yl)amino)phenyl)-3-(4-(trifluoromethoxy)phenyl)urea], for which the IC50 in assay [2] (setting [4]) is > 10000 nM; in assay [3] (setting [5]), 514 nM.
Take `CN(c1ccc(NC(=O)Nc2ccc(OC(F)(F)F)cc2)cc1)c1ccnc(Nc2cccc(O)c2)n1` [Compound 19, 1-(4-((2-(3-hydroxyphenylamino)pyrimidin-4-yl)(methyl)amino)phenyl)-3-(4-(trifluoromethoxy)phenyl)urea]: the IC50 in assay [2] (setting [4]) was > 10000 nM; in assay [3] (setting [5]), 1160 nM.
Consider `COc1cccc(Nc2nccc(N(C)c3ccc(NC(=O)Nc4ccc(OC(F)(F)F)cc4)cc3)n2)c1` [Compound 20, 1-(4-((2-(3-methoxyphenylamino)pyrimidin-4-yl)(methyl)amino)phenyl)-3-(4-(trifluoromethoxy)phenyl)urea], for which the IC50 is > 10000 nM in assay [2] (setting [4]) and 504 nM in assay [3] (setting [5]).
Turning to `Cc1ccc(Nc2nccc(N(C)c3ccc(NC(=O)Nc4ccc(OC(F)(F)F)cc4)cc3)n2)cc1S(N)(=O)=O` [Compound 21 from AU 2014903569, reference compound], the concentration for half-maximal inhibition (IC50) in assay [2] (U-937, comparison tables of the description, values as in Table 1 (assay 1), read-out: IC50 (nM) Off-Target Effect) stood at 3600 nM; in assay [3] (U-937, comparison tables of the description, values as in Table 1 (assay 1), read-out: IC50 (nM) Necroptosis inhibition), 72.7 nM.
Consider `CN(c1ccc(NC(=O)Nc2ccc(OC(F)(F)F)cc2)cc1)c1ccnc(Nc2cccc(C#N)c2)n1` [Compound 21, 1-(4-((2-(3-cyanophenylamino)pyrimidin-4-yl)(methyl)amino)phenyl)-3-(4-(trifluoromethoxy)phenyl)urea], for which the results for the IC50 in assay [2] (setting [4]) and in assay [3] (setting [5]) were > 10000 nM and 476 nM, respectively.
With `CN(c1ccc(NC(=O)Nc2ccc(OC(F)(F)F)cc2)cc1)c1ccnc(Nc2cccc(N)c2)n1` [Compound 22, 1-(4-((2-(3-aminophenylamino)pyrimidin-4-yl)(methyl)amino)phenyl)-3-(4-(trifluoromethoxy)phenyl)urea], the results for the half-inhibitory concentration (IC50) in assay [2] (setting [4]) and in assay [3] (setting [5]) were > 10000 nM and 427 nM, respectively.
For `Cc1ccc(Nc2nccc(N(C)c3ccc(NC(=O)Nc4ccc(OC(F)(F)F)cc4)cc3)n2)cc1CN1CCN(C)CC1` [Compound 23, 1-(4-(methyl(2-((4-methyl-3-((4-methylpiperazin-1-yl)methyl)phenyl)amino)pyrimidin-4-yl)amino)phenyl)-3-(4-(trifluoromethoxy)phenyl)urea], in that order: 6380 nM and 202 nM.
For `Cc1ccc(Nc2ncc(F)c(N(C)c3ccc(NC(=O)Nc4cc(F)cc(C(F)(F)F)c4)cc3)n2)cc1N1CCCC1=O` [Compound 24, 1-(4-((5-fluoro-2-((4-methyl-3-(2-oxopyrrolidin-1-yl)phenyl)amino)pyrimidin-4-yl)(methyl)amino)phenyl)-3-(3-fluoro-5-(trifluoromethyl)phenyl)urea], in that order: 1240 nM and 8.9 nM.
As for `Cc1ccc(Nc2nccc(N(C)c3ccc(NC(=O)Nc4cc(F)cc(C(F)(F)F)c4)cc3)n2)cc1C(=O)N1CCOCC1` [Compound 25, 1-(3-fluoro-5-(trifluoromethyl)phenyl)-3-(4-(methyl(2-((4-methyl-3-(morpholine-4-carbonyl)phenyl)amino)pyrimidin-4-yl)amino)phenyl)urea], the IC50 in assay [2] (setting [4]) is 2280 nM; in assay [3] (setting [5]), 9.2 nM.
For `CNC(=O)c1cc(Nc2nccc(N(C)c3ccc(NC(=O)Nc4cc(F)cc(C(F)(F)F)c4)cc3)n2)ccc1N1CCOCC1` [Compound 27, 5-((4-((4-(3-(3-fluoro-5-(trifluoromethyl)phenyl)ureido)phenyl)(methyl)amino)pyrimidin-2-yl)amino)-N-methyl-2-morpholinobenzamide], in that order: 2700 nM and 325 nM.
For `CC(=O)Nc1cc(Nc2nccc(N(C)c3ccc(NC(=O)Nc4ccc(OC(F)(F)F)cc4)cc3)n2)ccc1C` [Compound 28, N-(2-methyl-5-((4-(methyl(4-(3-(4-(trifluoromethoxy)phenyl)ureido)phenyl)amino)pyrimidin-2-yl)amino)phenyl)acetamide], in that order: 980 nM and 93 nM.
As to `CNC(=O)c1cc(Nc2nccc(N(C)c3ccc(NC(=O)Nc4cc(Cl)cc(C(F)(F)F)c4)cc3)n2)ccc1C` [Compound 29, 5-((4-((4-(3-(3-chloro-5-(trifluoromethyl)phenyl)ureido)phenyl)(methyl)amino)pyrimidin-2-yl)amino)-N,2-dimethylbenzamide], the IC50 was found to be 2050 nM in assay [2] (setting [4]) and 20 nM in assay [3] (setting [5]).
For `CNC(=O)c1cc(Nc2nccc(N(C)c3ccc(NC(=O)Nc4cc(F)cc(C(F)(F)F)c4)cc3)n2)ccc1OC` [Compound 30, 5-((4-((4-(3-(3-fluoro-5-(trifluoromethyl)phenyl)ureido)phenyl)(methyl)amino)pyrimidin-2-yl)amino)-2-methoxy-N-methylbenzamide], in that order: 6680 nM and 58 nM.
For `CNC(=O)c1cc(Nc2nccc(N(C)c3ccc(NC(=O)Nc4cccc(C#N)c4)cc3)n2)ccc1C` [Compound 33, 5-((4-((4-(3-(3-cyanophenyl)ureido)phenyl)(methyl)amino)pyrimidin-2-yl)amino)-N,2-dimethylbenzamide], in that order: 4130 nM and 164 nM.
`CNC(=O)c1cc(Nc2nccc(N(C)c3ccc(NC(=O)Nc4cc(F)cc(C(F)(F)F)c4)cc3)n2)ccc1CN1CCN(C)CC1` [Compound 35, 5-((4-((4-(3-(3-fluoro-5-(trifluoromethyl)phenyl)ureido)phenyl)(methyl)amino)pyrimidin-2-yl)amino)-N-methyl-2-((4-methylpiperazin-1-yl)methyl)benzamide]: the IC50 in the assay on U937 (setting [6]) was determined as 0.841 µM; in assay [1] (setting [7]), 45 nM.
For `Cc1ccc(Nc2nccc(N(C)c3ccc(NC(=O)Nc4cc(F)cc(C(F)(F)F)c4)cc3)n2)cc1C(=O)OCCO` [Compound 36, 2-hydroxyethyl 5-((4-((4-(3-(3-fluoro-5-(trifluoromethyl)phenyl)ureido)phenyl)(methyl)amino)pyrimidin-2-yl)amino)-2-methylbenzoate], in that order: 2.42 µM and 23 nM.
For `CNC(=O)c1cc(Nc2nccc(N(C)c3ccc(NC(=O)Nc4cc(C(F)(F)F)cc(C(F)(F)F)c4)cc3)n2)ccc1C` [Compound 37, 5-((4-((4-(3-(3,5-bis(trifluoromethyl)phenyl)ureido)phenyl)(methyl)amino)pyrimidin-2-yl)amino)-N,2-dimethylbenzamide], in that order: 1.09 µM and 71 nM.
For `CNC(=O)c1cc(Nc2nccc(N(C)c3ccc(NC(=O)Nc4cccc(CC(F)(F)F)c4)cc3)n2)ccc1C` [Compound 38, N,2-dimethyl-5-((4-(methyl(4-(3-(3-(2,2,2-trifluoroethyl)phenyl)ureido)phenyl)amino)pyrimidin-2-yl)amino)benzamide], the IC50 in the assay with U937 (setting [6]) was 0.231 µM; in assay [1] (setting [7]) it was 2.3 nM.

Usually IC50 stands for the concentration at which inhibition is half-maximal.
